pIC50: −log10 of the molar value. Several values for one entry are separate records, joined by “and”; a condition that tells them apart may be missing. Equal values may be shown once.
Test system: MIN6 insulin promoter GFP reporter, high-content imaging
Test: decrease of insulin promoter-GFP reporter – imaging, high-content screening, mouse beta cells (AID 1628);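 note: potency for lowering insulin promoter GFP signal so compounds are inhibitors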

pIC50: 5.58 and 5.79
SMILES: CN(C)c1ccnc2c[cH-]cc12.[Fe].c1ccc(-[c-]2[c-](-c3ccccc3)[c-](-c3ccccc3)[c-](-c3ccccc3)[c-]2-c2ccccc2)cc1 (stereo unspecified)

Reference: PubChem BioAssay AID1628 (Sanford-Burnham Center for Chemical Genomics, 2009)
